Among the data in patent US20110077248A1, “IMIDAZOPYRIDINE AND RELATED ANALOGS AS SIRTUIN MODULATORS” (Sirtris Pharmaceuticals, Inc., priority 2008, published 2011) are EC1.5 and Emax values, retold here.

In the test the target is T1, SIRT1 (Homo sapiens, UniProt Q96EB6).
T1 construct: His-tag (N); made in house; host or cells: E. coli BL21(DE3), T7-promoter vector
T1 sequence (Q96EB6 1-747): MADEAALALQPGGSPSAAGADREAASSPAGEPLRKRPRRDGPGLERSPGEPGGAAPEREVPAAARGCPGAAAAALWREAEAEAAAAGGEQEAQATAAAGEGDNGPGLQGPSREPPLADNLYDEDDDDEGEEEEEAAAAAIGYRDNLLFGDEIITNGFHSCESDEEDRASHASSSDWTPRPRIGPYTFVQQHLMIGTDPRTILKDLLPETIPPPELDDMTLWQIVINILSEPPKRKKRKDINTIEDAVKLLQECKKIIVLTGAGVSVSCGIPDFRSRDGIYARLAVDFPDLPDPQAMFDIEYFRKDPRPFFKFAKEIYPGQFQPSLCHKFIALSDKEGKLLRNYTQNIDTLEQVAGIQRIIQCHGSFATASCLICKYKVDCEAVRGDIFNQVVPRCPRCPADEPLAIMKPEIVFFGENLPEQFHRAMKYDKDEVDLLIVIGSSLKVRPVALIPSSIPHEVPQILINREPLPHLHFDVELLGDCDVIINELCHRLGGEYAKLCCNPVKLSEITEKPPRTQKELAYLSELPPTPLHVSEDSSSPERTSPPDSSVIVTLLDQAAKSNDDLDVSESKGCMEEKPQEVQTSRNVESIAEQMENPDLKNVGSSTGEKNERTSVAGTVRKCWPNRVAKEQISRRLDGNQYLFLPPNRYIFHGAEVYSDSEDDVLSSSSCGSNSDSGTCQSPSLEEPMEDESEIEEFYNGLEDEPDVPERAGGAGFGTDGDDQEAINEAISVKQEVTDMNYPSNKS
Description: Mass spectrometry based assay for modulators of SIRT1 activity (deacetylation of p53-based acetylated peptide). It counts as biochemical. The conditions noted are these: for EC1.5: concentration of test compound that results in 150% activation of SIRT1, 0.5 μM peptide substrate, 120 μM βNAD+, 10 nM SIRT1, 25 min, 25° C.; for Emax: percent maximum fold activation of SIRT1. The text has this:
A mass spectrometry based assay was used to identify modulators of SIRT1 activity. The mass spectrometry based assay utilizes a peptide having 20 amino acid residues as follows: Ac-EE-K(biotin)-GQSTSSHSK(Ac)NleSTEG-K(5TMRi)-EE-NH2 (SEQ ID NO: 1) wherein K(Ac) is an acetylated lysine residue and Nle is a norleucine. The peptide is labeled with the fluorophore 5TMR (excitation 540 nm/emission 580 nm) at the C-terminus. The sequence of the peptide substrate is based on p53 with several modifications. In addition, the methionine residue naturally present in the sequence was replaced with the norleucine because the methionine may be susceptible to oxidation during synthesis and purification.
The mass spectrometry assay is conducted as follows: 0.5 μM peptide substrate and 120 μM βNAD+ is incubated with 10 nM SIRT1 for 25 minutes at 25° C. in a reaction buffer (50 mM Tris-acetate pH 8, 137 mM NaCl, 2.7 mM KCl, 1 mM MgCl2, 5 mM DTT, 0.05% BSA). Test compounds may be added to the reaction as described above. The SirT1 gene is cloned into a T7-promoter containing vector and transformed into BL21(DE3). After the 25 minute incubation with SIRT1, 10 μL of 10% formic acid is added to stop the reaction. Reactions are sealed and frozen for later mass spec analysis. Determination of the mass of the substrate peptide allows for precise determination of the degree of acetylation (i.e. starting material) as compared to deacetylated peptide (product).
A control for inhibition of sirtuin activity is conducted by adding 1 μL of 500 mM nicotinamide as a negative control at the start of the reaction (e.g., permits determination of maximum sirtuin inhibition). A control for activation of sirtuin activity is conducted using 10 nM of sirtuin protein, with 1 μL of DMSO in place of compound, to determinine the amount of deacetylation of the substrate at a given timepoint within the linear range of the assay. This timepoint is the same as that used for test compounds and, within the linear range, the endpoint represents a change in velocity.
For the above assay, SIRT1 protein was expressed and purified as follows. The SirT1 gene was cloned into a T7-promoter containing vector and transformed into BL21(DE3). The protein was expressed by induction with 1 mM IPTG as an N-terminal His-tag fusion protein at 18° C. overnight and harvested at 30,000×g. Cells were lysed with lysozyme in lysis buffer (50 mM Tris-HCl, 2 mM Tris[2-carboxyethyl]phosphine (TCEP), 10 μM ZnCl2, 200 mM NaCl) and further treated with sonication for 10 min for complete lysis. The protein was purified over a Ni-NTA column (Amersham) and fractions containing pure protein were pooled, concentrated and run over a sizing column (Sephadex S200 26/60 global). The peak containing soluble protein was collected and run on an Ion-exchange column (MonoQ). Gradient elution (200 mM-500 mM NaCl) yielded pure protein. This protein was concentrated and dialyzed against dialysis buffer (20 mM Tris-HCl, 2 mM TCEP) overnight. The protein was aliquoted and frozen at −80° C. until further use.
Sirtuin modulating compounds that activated SIRT1 were identified using the assay described above and are shown below in Table 1. The EC1.5 values represent the concentration of test compounds that result in 150% activation of SIRT1. The EC1.5 values for the activating compounds are represented by A (EC1.5<1.0 uM), B (EC1.5 1-25 uM), C (EC1.5>25 uM). The percent maximum fold activation is represented by A (Fold activation >200%) or B (Fold Activation <200%). “NT” indicates the compound was not tested in a particular assay.

On to `O=C(Nc1nccs1)c1cccn2nc(-c3cccc(N4CCOCC4)c3)nc12` [Compound 181], for which the EC1.5 entry is listed as “B (EC1.5 1-25 uM)” and the Emax was less than 200%.

`O=C(Nc1ccccn1)c1cccn2nc(-c3ccccc3OC(F)F)nc12` [Compound 226]: the EC1.5 result was “B (EC1.5 1-25 uM)” and the Emax is more than 200%.

Regarding `O=C(Nc1cccn2cc(-c3cccc(C(F)(F)F)c3)nc12)c1ncccn1` [Compound 122, N-(2-(3-(trifluoromethyl)phenyl)imidazo[1,2-a]pyridin-8-yl)pyrimidine-2-carboxamide], the EC1.5 entry was “B (EC1.5 1-25 uM)” and the Emax is more than 200%.

`O=C(Nc1ccccn1)c1cccn2cc(-c3ccc(CN4CCOCC4)cc3)nc12` [Compound 251]: the EC1.5 entry is recorded as “B (EC1.5 1-25 uM)” and the Emax is more than 200%.

As for `O=C(Nc1ccccn1)c1nccn2cc(-c3ccccc3C(F)(F)F)nc12` [Compound 172], the EC1.5 result is “B (EC1.5 1-25 uM)” and the Emax was more than 200%.

For `O=C(Nc1cccc(CN2CCOCC2)n1)c1cccn2cc(-c3ccc(F)cc3F)nc12` [Compound 199], the EC1.5 result is “B (EC1.5 1-25 uM)” and the Emax is less than 200%.

In the case of `O=C(Nc1cccn2cc(-c3cccc(OC(F)(F)F)c3)nc12)c1cscn1` [Compound 104], the EC1.5 entry is reported as “C (EC1.5>25 uM)” and the Emax was less than 200%.

Take `Cc1ccc(-c2cn3ccnc(C(=O)Nc4ccccn4)c3n2)cn1` [Compound 163]: the EC1.5 entry was “B (EC1.5 1-25 uM)” and the Emax is less than 200%.

Consider `Cc1ncccc1-c1nc2c(C(=O)Nc3nc(CN4CCOCC4)cs3)cccn2n1` [Compound 241], for which the EC1.5 entry is given as “B (EC1.5 1-25 uM)” and the Emax is less than 200%.

With `O=C(Nc1nccs1)c1nccn2cc(-c3ccc(F)cc3C(F)(F)F)nc12` [Compound 188], the EC1.5 entry is on record as “B (EC1.5 1-25 uM)” and the Emax is more than 200%.

As to `O=C(Nc1cccc(CN2CCOCC2)n1)c1cccn2cc(-c3ccc(C(F)F)cc3)nc12` [Compound 205], the EC1.5 result is “A (EC1.5<1.0 uM)” and the Emax is more than 200%.

Regarding `O=C(Nc1ccccn1)c1nccn2cc(-c3ccccc3OC(F)(F)F)nc12` [Compound 186], the EC1.5 entry was “B (EC1.5 1-25 uM)” and the Emax is more than 200%.

With `O=C(NC1CCCC1)c1cccn2cc(-c3cccc(OC(F)(F)F)c3)nc12` [Compound 114], the EC1.5 result is recorded as “C (EC1.5>25 uM)” and the Emax is less than 200%.

As for `O=C(Nc1nccs1)c1cccn2cc(-c3ccccc3)nc12` [Compound 106], the EC1.5 entry was “B (EC1.5 1-25 uM)” and the Emax was less than 200%.

For the molecule `O=C(Nc1cccn2cc(-c3cccc(C(F)(F)F)c3)nc12)c1ccncc1` [Compound 119], the EC1.5 entry is recorded as “C (EC1.5>25 uM)” and the Emax is less than 200%.

For the molecule `O=C(Nc1cccc(CN2CCOCC2)n1)c1cccn2cc(-c3ccc(F)cc3C(F)(F)F)nc12` [Compound 238], the EC1.5 entry is recorded as “A (EC1.5<1.0 uM)” and the Emax was more than 200%.

As to `O=C(Nc1nc(CN2CCOCC2)cs1)c1cccn2cc(-c3ccc(C(F)F)cc3)nc12` [Compound 204], the EC1.5 entry is reported as “B (EC1.5 1-25 uM)” and the Emax is more than 200%.

`O=C(Nc1nccs1)c1nccn2cc(-c3cccc(C(F)(F)F)c3)nc12` [Compound 138, N-(thiazol-2-yl)-2-(3-(trifluoromethyl)phenyl)imidazo[1,2-a]pyrazine-8-carboxamide]: the EC1.5 entry was “C (EC1.5>25 uM)” and the Emax is less than 200%.

On to `O=C(Nc1ccccn1)c1cccn2cc(-c3cccc(CN4CCOCC4)c3)nc12` [Compound 255], for which the EC1.5 result is given as “A (EC1.5<1.0 uM)” and the Emax was more than 200%.

For `O=C(Nc1nccs1)c1cccn2nc(-c3cc(Cl)ccc3C(F)(F)F)nc12` [Compound 223], the EC1.5 result is “B (EC1.5 1-25 uM)” and the Emax was less than 200%.

With `O=C(Nc1nc(CN2CCOCC2)cs1)c1cccn2cc(-c3ccc(F)c(Cl)c3)nc12` [Compound 235], the EC1.5 entry is “A (EC1.5<1.0 uM)” and the Emax was more than 200%.

Take `O=C(Nc1nccs1)c1nccn2cc(-c3ccccc3OC(F)(F)F)nc12` [Compound 185]: the EC1.5 result is listed as “B (EC1.5 1-25 uM)” and the Emax was more than 200%.

Turning to `Cc1ccc(-c2cn3ccnc(C(=O)Nc4cccc(CN5CCOCC5)n4)c3n2)cn1` [Compound 165], the EC1.5 entry is “B (EC1.5 1-25 uM)” and the Emax is less than 200%.

Consider `O=C(Nc1ccccn1)c1cccn2cc(-c3ccc(C(F)(F)F)cc3)nc12` [Compound 151], for which the EC1.5 entry is reported as “C (EC1.5>25 uM)” and the Emax was less than 200%.

On to `O=C(Nc1ncc(CN2CCOCC2)s1)c1cccn2cc(-c3cccc(C(F)(F)F)c3)nc12` [Compound 134, N-(5-(morpholinomethyl)thiazol-2-yl)-2-(3-(trifluoromethyl)phenyl)imidazo[1,2-a]pyridine-8-carboxamide], for which the EC1.5 result was “A (EC1.5<1.0 uM)” and the Emax is more than 200%.

As to `O=C(Nc1cccc(OCC(O)CO)c1)c1cccn2cc(-c3cccc(OC(F)(F)F)c3)nc12` (stereo not shown) [Compound 136], the EC1.5 result is recorded as “B (EC1.5 1-25 uM)” and the Emax was more than 200%.

`O=C(Nc1ccccn1)c1cccn2cc(-c3ccc(CN4CCCC4)cc3)nc12` [Compound 253]: the EC1.5 entry is reported as “B (EC1.5 1-25 uM)” and the Emax was more than 200%.

Regarding `O=C(Nc1ccncn1)c1nccn2cc(-c3ccccc3C(F)(F)F)nc12` [Compound 175], the EC1.5 entry is “B (EC1.5 1-25 uM)” and the Emax is more than 200%.

On to `O=C(Nc1nccs1)c1cccn2cc(-c3cccc(CN4CCCC4)c3)nc12` [Compound 256], for which the EC1.5 entry is “B (EC1.5 1-25 uM)” and the Emax was more than 200%.

In the case of `O=C(Nc1cccc(CN2CCOCC2)n1)c1nccn2cc(-c3ccc(F)cc3C(F)(F)F)nc12` [Compound 261], the EC1.5 entry is given as “A (EC1.5<1.0 uM)” and the Emax is more than 200%.

As for `O=C(Nc1ccc(CN2CCOCC2)cc1)c1cccn2cc(-c3ccc(F)cc3C(F)(F)F)nc12` [Compound 147], the EC1.5 entry is on record as “B (EC1.5 1-25 uM)” and the maximal effect (Emax) was more than 200%.

On to `O=C(Nc1cccc(CN2CCOCC2)n1)c1cccn2cc(-c3cc(F)c(F)c(F)c3)nc12` [Compound 197], for which the EC1.5 result was “B (EC1.5 1-25 uM)” and the Emax is more than 200%.

Broadly, the Emax is the greatest response seen or fitted, relative to the assay's reference.
